Measurements reported in patent publication US4847241A, “Fluorenyl substituted tyrosyl dipeptide amides which are useful in treating pain” (priority 1988, dated 1989).

Key:
[1] = test system: Writhing Mouse; test: Writhing Assay (phenylbenzoquinone); assay type: in vivo, mice; details: 30 min before phenylbenzoquinone i.p., Active refers to the effect of the screening dose; for Writhing Mouse, Oral: screening dose 10 mg/kg p.o. (intragastric); for Writhing Mouse, Subc.: screening dose 10 mg/kg s.c.
Description: Male Charles River albino mice (CD-1/HAM/1LR) weighing between 20 and 30 grams were used. Thirty minutes after subcutaneous or intragastric administration of the test compound (0.1 mg/10 gram body weight), 0.025% (w/v) phenylbenzoquinone was injected intraperitoneally (0.1 ml/10 gram body weight). Five minutes later, each mouse was placed in a large glass beaker and the number of writhes that occurred in the subsequent ten minutes is counted. A writhe consisted of dorsoflexion of the back, extension of the hindlimbs, and strong contraction of the abdominal musculature. The test compound was considered to have produced analgesia in a mouse if the number of writhes elicited by phenylbenzoquinone was equal to or less than one-half the median number of writhes recorded for the saline-treated group that day. The results were expressed as the number of mice (out of a possible ten) in which the test compound produced analgesia.

[2] = test system: opiate receptors isolated from rat brain; assay type: binding; details: 1 nM 3H-Naloxone, rat brain receptor membranes, screening concentration 10^-5 molar
[3] = test system: rat; details: injected directly into the brain of the rat; cited from earlier work

Molecule	Writhing Mouse, Oral [1]	Writhing Mouse, Subc. [1]	Opiate Binding, IC50 [2]	IC50 ([2]; read-out: Opiate Binding, IC50) [nM]	analgesic activity [3]
2,6-dimethyltyrosyl-N-(2,3-dihydro-1H-inden-2-yl)-D-alaninamide, monohydrochloride [Example 24]	Inactive	Lethal			
2,6-dimethyltyrosyl-N-(6-methoxy-6-oxohexyl)-D-alaninamide, monohydrochloride [Example 5]	Inactive	Inactive			
2,6-dimethyltyrosyl-N-(6-methoxy-6-oxohexyl)-D-alaninamide, monohydrochloride [Example 7]	Inactive	Inactive			
2,6-dimethyltyrosyl-N-[3-(2-thienyl)-2E-propenyl]-D-alaninamide, monohydrochloride [Example 52]	Inactive	Active			
2,6-dimethyltyrosyl-N-[3-(2-thienyl)propyl]-D-alaninamide, monohydrochloride [Example 47]	Active	Active			
2,6-dimethyltyrosyl-N-[3-(3-thienyl)-2E-propenyl]-D-alaninamide, monohydrochloride [Example 58]	Inactive	Active			
2-(2R-amino-1-oxopropyl)-1,2,3,4-tetrahydroisoquinoline, monohydrochloride [Example 32]	Active	Inactive	Inactive		
Cc1cc(O)cc(C)c1CC(NC(=O)OC(C)(C)C)C(=O)N[C@H](C)C(=O)NCCSc1ccccc1 (mixture of isomers) [Example 108, N-[(1,1-dimethylethoxy)carbonyl]-2,6-dimethyl-DL-tyrosyl-N-[2-(phenylthio)ethyl]-D-alaninamide]	Inactive	Active			
Cc1cc(O)cc(C)c1CC(NC(=O)OC(C)(C)C)C(=O)N[C@H](C)C(=O)NCCOc1ccccc1 (mixture of isomers) [Example 115, N-[(1,1-dimethylethoxy)carbonyl]02,6-dimethyl-DL-tyrosyl-N-(2-phenoxyethyl)-D-alaninamide]	Active	Active			
Cc1cc(O)cc(C)c1C[C@H](N)C(=O)N[C@@H](C)C(=O)N1CCCc2ccccc21.Cl (relative stereo) [Example 29, αS-R*-amino-4-hydroxy-2,6-dimethyl-N-[1S*-methyl-2-oxo-2-(1,2,3,4-tetrahydro-1-quinolinyl)ethyl]benzenepropanamide, monohydrochloride]	Inactive	Inactive			
Cc1cc(O)cc(C)c1C[C@H](N)C(=O)N[C@H](C)C(=O)N1CCc2ccccc2C1.Cl (single isomer, unassigned) [Example 35, α-amino-4-hydroxy-2,6-dimethyl-N-[1R-methyl-2-oxo-2-(1,2,3,4-tetrahydro-2-isoquinolinyl)ethyl]benzenepropanamide, monohydrochloride, isomer S]	Active	Active			
Cc1cc(O)cc(C)c1C[C@H](N)C(=O)N[C@H](C)C(=O)NCCCc1cccs1.Cl (single isomer, unassigned) [Example 46, 2,6-dimethyltyrosyl-N-[3-(2-thienyl)propyl]-D-alaninamide, monohydrochloride DF isomer]	Inactive	Inactive		220	
C[C@@H](NC(=O)OCc1ccccc1)C(=O)NC1Cc2ccccc2C1 [Example 20, phenylmethyl [2-[(2,3-dihydro-1H-inden-2-yl)amino]-1R-methyl-2-oxoethyl]carbamate]	Inactive	Active	Inactive		
C[C@@H](N)C(=O)NC1Cc2ccccc2C1 [Example 21, 2R-amino-N-(2,3-dihydro-1H-inden-2-yl)propanamide]	Inactive	Active	Inactive		
C[C@@H](NC(=O)OCc1ccccc1)C(=O)N1CCCc2ccccc21 [Example 25, phenylmethyl [1R-methyl-2-oxo-2-(1,2,3,4-tetrahydro-1-quinolinyl)ethyl]carbamate]	Inactive	Inactive			
Cc1cc(O)cc(C)c1CC(N)C(=O)N[C@H](C)C(=O)N1CCCc2ccccc21.Cl (stereo partly drawn) [Example 30, α-amino-4-hydroxy-2,6-dimethyl-N-[1R-methyl-2-oxo-2-(1,2,3,4-tetrahydro-1-quinolinyl)ethyl]benezenepropanamide, monohydrochloride]	Inactive	Inactive			
Cc1cc(O)cc(C)c1C[C@H](N)C(=O)N[C@H](C)C(=O)NCCc1cccs1.Cl [Example 39, 2,6-dimethyl-L-tyrosyl-N-[2-(2-thienyl)ethyl]-D-alainamide, monohydrochloride]	Inactive	Inactive			
C[C@@H](N)C(=O)NCCCc1cccs1 [Example 44, 2R-amino-N-[3-(2-thienyl)propyl]propanamide]	Active	Active	Inactive		
COc1ccc(CCCNC(=O)[C@@H](C)N)cc1 [Example 60, αR-amino-N-[3-(4-methoxyphenyl)propyl]propanamide]	Active	Active			
Cc1cc(O)cc(C)c1C[C@H](N)C(=O)N[C@H](C)C(=O)NCCC(c1ccccc1)c1ccccc1.Cl [Example 73, 2,6-dimethyltyrosyl-N-(3,3-diphenylpropyl)-D-alaninamide, monohydrochloride]	Inactive	Active			
Cc1cc(O)cc(C)c1C[C@H](N)C(=O)N[C@H](C)C(=O)NCCSc1ccccc1.Cl [Example 109, 2,6-dimethyltyrosyl-N-[2-(phenylthio)ethyl]-D-alaninamide, monohydrochloride]	Inactive	Active			
methionine enkepthalin					weak, fleeting analgesic activity
α-amino-4-hydroxy-2,6-dimethyl-N-[1R-methyl-2-oxo-2-(1,2,3,4-tetrahydro-2-isoquinolinyl)ethyl]benzenepropanamide, monohydrochloride [Example 37]	Inactive	Inactive			
